Results taken from patent US5958882A, “Compounds that inhibit T cell proliferation and methods using the same” (Thomas Jefferson University, priority 1996, dated 1999).
Bridges are numbered along the chain shown (N, C = ends). Where no end group is shown, it is not given here. [ ]: non-standard residue; d: D form.

Key:
[1] = test system: human T cells stimulated with PHA; test: Phytohemagglutinin T cell proliferation assay; type: cell-based
Description: The mitogen phytohemagglutinin (PHA) activates T cells by cross-linking CD3/TCR complexes. Human blood is collected from volunteer donors. Lymphocytes are purified by separation over a Ficoll gradient. T cells are separated by rosetting to sheep red blood cells. The enriched T cell population is stimulated with 5 μg/ml phytohemagglutinin (PHA). FIG. 7 illustrates the ability of the D2 peptide analogs to inhibit T cell proliferation in response to PHA stimulation. […] Results are illustrated in FIG. 7.

[2] = test system: MLR in a BALB/c (H-2D) anti C3H (H-2K) alloresponse; test: MLR of Example 10 (Table II); type: cell-based, mouse; settings: MLR without peptide 66000 CPM
Description: (§1) Mice were sacrificed and spleens aseptically removed. Cell suspensions were made by gently pressing spleens through nylon mesh, washing cells with RPMI 1640 and hypotonic lysis of red blood cells. After 3 washes in RPMI 1640, cells were resuspended in complete medium (RPMI 1640, 10% heat inactivated FCS, 2 mM L-glutamine, penicillin/streptomycin, and […]). 1×10^5 responder cells (BALB/c spleen cells) were incubated with 1×10^5 stimulator cells (C3H spleen cells, 2000 rad irradiated) in triplicate in round bottom 96 well plates (final volume 200 μl), and incubated with the indicated concentration of peptide (0.01, 0.1, 1, 10, 100 and 1000 μM peptide) for 5 days at 37° C., 5% CO2. 1 μCi/WELL OF [^3 H] TdR was added 12 hours before thymidine incorporation was measured. Labelled DNA from cells was harvested onto glass fiber filters with a PHD cell harvester (Cambridge, Mass.), and CPM determined by liquid scintillation counting with the use of a 1209 Rackbeta (LKB, Piscataway, N.J.).
A MLR was performed as described in Example 6. h84-101 C--C, SEQ ID NO:4, SEQ ID NO:5, SEQ ID NO:6, SEQ ID NO:11, (SEQ ID NO:4+SEQ ID NO:5), and a monoclonal antibody directed against CD4 (OKT4A) were tested for their effect on MLR in a BALB/c (H-2D) anti C3H (H-2K) alloresponse. MLR was also performed without the addition of peptide or antibody (MLR). Each peptide individually has inhibitory activity to a moderate level (30-50%), but when two analogs are added together (SEQ ID NO:4 and SEQ ID NO:5) the effect was synergistic and the inhibition approached 100%, as compared to a monoclonal antibody directed against CD4 (OKT4A).

[3] = test system: human mixed lymphocyte reaction; test: Human mixed lymphocyte reaction (Example 8, FIG. 3); type: cell-based
[4] = test system: BALB/c spleen cells (responder) with irradiated C3H spleen cells (stimulator); test: Mixed lymphocyte reaction (MLR), BALB/c anti-C3H alloresponse; type: cell-based, mouse
Description: The mixed lymphocyte reaction (MLR) is the response of one individual's T lymphocytes to those of a major histocompatibility complex (MHC) mismatched donor. CD4+ T cells recognize the foreign MHC proteins and proliferate in response to this, in a manner highly dependent on the CD4 molecule.
as §1
A MLR was performed as described in Example 6. Cells were incubated with a 0.01, 0.1, 1, 10, 100, and 1000 μM of each of the following peptides: SEQ ID NO:1 (mPGPtide), and control peptides, SEQ ID NO:3 (hPGPtides) and SEQ ID NO:13 (mCDR3 scramble). […] Activity was approximately 85000 CPM after the addition of 0.01 μM SEQ ID NO:1, and approximately 30000 CPM after the addition of 200 μM SEQ ID NO:1. […] Activity was approximately 75000 CPM at 0.01 μM SEQ ID NO:3, and approximately 60000 CPM after the addition of 200 μM SEQ ID NO:3. Similarly, activity was approximately 80000 CPM after the addition of 0.01 μM of SEQ ID NO:13, and approximately 90000 CPM after the addition of 200 μM SEQ ID NO:13. […]

[5] = test system: lethal GVHD in irradiated DBA/2 mice given B10.D2 CD4+ T cells; test: GVHD mediated by CD4+ T cells; type: in vivo, mouse; settings: 0.5 mg i.v. on days 0 and 3
Description: The transplantation of B10.D2 CD4+ T cells along with T-cell-depleted bone marrow has been shown previously to induce a lethal GVHD response in irradiated (850 cGy) DBA/2 mice (Korngold and Sprent, (1987) J. Exp. Med. 165:1552-1564).

EAE in SJL mice = test: Experimental allergic encephalomyelitis (EAE) model; type: in vivo, mouse; settings: for maximum EAE incidence: SJL mice, untreated 83%; for maximum mean EAE severity grade (0-5): untreated 2.17; for average time of initial onset: untreated day 15.6
Description: Experimental allergic encephalomyelitis (EAE) is considered to be the best experimental animal model for the study of multiple sclerosis since it shares many of the same clinical and histopathological features as the human disorder. EAE can be elicited in several animal species, including mice, by inoculation of crude CNS tissue extracts, purified MBP, proteolipids, or synthetic polypeptides composed of the active portions of these antigenic molecules. Antigen is administered subcutaneously in conjunction with complete Freund's adjuvant (CFA) and, in our modification of the standard procedure, is given twice on days 0 and 7 for induction (Korngold et al., (1986) Immunogenetics 24:309-315, which is incorporated herein by reference). Symptoms of disease usually occur between 15-19 days after initial immunization and may last for up to 25 days. Mice usually recover from the acute EAE attack, but may relapse at a later time, or are susceptible to an enhanced disease episode upon further immunization.
SJL mice, which are highly susceptible to the induction of acute EAE, were immunized as described in Korngold et al., (1986) Immunogenetics 24:309-315. Accordingly, 1 mg of crude SJL mouse spinal cord homogenate (MSCH) was diluted in 0.15 ml phosphate buffered solution and emulsified in an equal volume of CFA. 0.15 ml of the inoculum was injected subcutaneously in each of two sites on the posterior flank of mice anesthetized with metaphane. A secondary inoculation, similar to the primary, was administered at 7 days. Mice were evaluated daily for symptoms of disease and graded 0-5: 0=no clinical expression of disease; 1=flaccid tail with or without mild hind leg weakness; 2=flaccid tail with moderate hind leg weakness; 3=severe hind leg weakness and mild forelimb weakness; 4=total hind leg paralysis associated with moderate forelimb weakness; and 5=quadriplegia or a moribund state.
The mice were divided into four groups: the first left untreated; the second injected on days 2 and 8 intravenously 10 (i.v.) with 0.5 mg of the D amino acid CDR3-like peptide #1; the third injected on day 12 i.v. with the D amino acid CDR3-like peptide #1; and the fourth injected i.v. on days 2 and 8 with a control D-polypeptide of similar length to the D amino acid CDR3-like peptide #1.
With the same experiment described above, mice from the different treatment groups were scored for the clinical expression of disease. […] The ifferences were statistically significant, by Tukey multiple analysis of variance, between: the untreated and the D amino acid CDR3-like peptide #1 day 2,8 treated group on days 16-19 and 24 […]; the untreated and the D amino acid CDR3-like peptide #1 day 12 treated group on days 16-24 (0.01≤p≤0.05); and the control peptide day 2,8 group and the D amino acid CDR3-like peptide #1 day 2,8 treated group on day 17 (p=0.02).
To investigate whether D amino acid CDR3-like peptide #1 could have an effect upon the development of EAE once symptoms have already appeared and therefore corresponding to the effector phase of the disease, 30 SJL mice were inoculated on days 0 and 7 with MSCH and CFA, as described above. 12 mice that had reached a grade 1 level of clinical EAE expression by day 16 were selected and randomly grouped to be left untreated or treated with 0.5 mg i.v. of D amino acid CDR3-like peptide #1. […] At day 18, the difference between the untreated and treated groups was statistically significant (p=0.003).

## C*RSPRGKNC [SEQ ID NO:6]
[1]; 0.25 μM peptide, 5 μg/ml PHA
  CPM after PHA stimulation: 48000 CPM
[1]; 250 μg peptide
  CPM after PHA stimulation: 39500 CPM
[2]
  CPM: 50000 CPM

## CLLVFEVEDQKEEVQGLC [SEQ ID NO:13]
[3]; 500 μM peptide
  % CPM of the positive control: about 100%
[3]; 0.1-1000 μM
  inhibition of the proliferative response of the human MLR: little or no inhibition
[4]; 0.01 μM peptide
  MLR activity (CPM): approximately 80000 CPM
[4]; 200 μM peptide
  MLR activity (CPM): approximately 90000 CPM
[4]; BALB/c anti-C3H MLR, 5 days, [3H]TdR incorporation
  inhibitory activity on MLR: little or no activity

## CPGPEEKRNELEC ([dC][dP]G[dP][dE][dE][dK][dR][dN][dE][dL][dE][dC]; disulfide 1-13 (inferred)) [D amino acid CDR3-like peptide #1]
[5]; untreated 83% lethal GVHD
  incidence of survival: 57%
[5]; untreated 15 days, experiment ended at 65 days
  median survival time: greater than 65 days
EAE in SJL mice; 0.5 mg i.v. at grade 1 on day 16, value on day 19, untreated 2.4 by day 18
  EAE severity grade reached, effector phase: 1.17
EAE in SJL mice; i.v. on day 12
  maximum EAE incidence: 31%
EAE in SJL mice; i.v. on days 2 and 8 (0.5 mg)
  maximum EAE incidence: 36%
EAE in SJL mice; groups treated on days 2,8 or day 12
  days of peak EAE severity: 19 to 21 days
EAE in SJL mice; murine EAE model
  effect on the course of disease progression (EAE): dramatically intervened in the progression
EAE in SJL mice; treated on day 12
  maximum mean EAE severity grade (0-5): 0.75
  average time of initial onset: 17.0 days
EAE in SJL mice; treated on days 2,8
  maximum mean EAE severity grade (0-5): 0.77
  average time of initial onset: 17.1 days

## LESPPGSSPSV [SEQ ID NO:5]
[1]; 0.25 μM peptide, 5 μg/ml PHA
  CPM after PHA stimulation: 53500 CPM
[1]; 250 μg peptide
  CPM after PHA stimulation: 39500 CPM
[2]
  CPM: 48000 CPM

## TCTNLQNQKKVECK [SEQ ID NO:4]
[1]; 0.25 μM peptide, 5 μg/ml PHA
  CPM after PHA stimulation: 47000 CPM
[1]; 250 μg peptide
  CPM after PHA stimulation: 38000 CPM
[2]
  CPM: 42000 CPM
